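Where inhibition never reached the appropriate level, the endpoint shown equals the highest concentration tested. Otherwise, values were interpolated linearly from a five-concentration, 48-hour dose response in 96-well plates. At the GI50, growth is halved.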 Active and inactive are the calls of the source. Cut-off read from the data, not from the text of the source: active = GI50 up to about 1.1 µM and inactive = higher.
Legend:
Test in all cases: growth of human tumour cells (NCI), 48 h
SK-MEL-2 = tested on: SK-MEL-2
PC-3 = tested on: PC-3
NCI-H460 = tested on: NCI-H460
UACC-257 = tested on: UACC-257
TK-10 = tested on: TK-10
COLO 205 = tested on: COLO 205
MDA-N = tested on: MDA-N
MDA-MB-231 = tested on: MDA-MB-231
HL-60 = tested on: HL-60
MDA-MB-435 = tested on: MDA-MB-435
OVCAR-5 = tested on: OVCAR-5
HCT-116 = tested on: HCT-116
BT-549 = tested on: BT-549
ACHN = tested on: ACHN
NCI-H226 = tested on: NCI-H226
EKVX = tested on: EKVX
SK-OV-3 = tested on: SK-OV-3
SN12C = tested on: SN12C
NCI-H23 = tested on: NCI-H23
A549 = tested on: A549
A498 = tested on: A498
IGROV-1 = tested on: IGROV-1
MOLT-4 = tested on: MOLT-4
LOX IMVI = tested on: LOX IMVI
M14 = tested on: M14
DU-145 = tested on: DU-145
KM12 = tested on: KM12
UO-31 = tested on: UO-31
SF-295 = tested on: SF-295
MCF7 = tested on: MCF7
SNB-75 = tested on: SNB-75
HCC 2998 = tested on: HCC 2998
SW-620 = tested on: SW-620
OVCAR-4 = tested on: OVCAR-4
Malme-3M = tested on: Malme-3M
SR = tested on: SR
786-0 = tested on: 786-0
RPMI-8226 = tested on: RPMI-8226
CAKI-1 = tested on: CAKI-1
HCT-15 = tested on: HCT-15
K562 = tested on: K562
HOP-92 = tested on: HOP-92
CCRF-CEM = tested on: CCRF-CEM
SK-MEL-5 = tested on: SK-MEL-5
UACC-62 = tested on: UACC-62
RXF 393 = tested on: RXF 393
NCI/ADR-RES = tested on: NCI/ADR-RES
U-251 = tested on: U-251
NCI-H522 = tested on: NCI-H522
SF-539 = tested on: SF-539
OVCAR-8 = tested on: OVCAR-8
OVCAR-3 = tested on: OVCAR-3

Cc1ccc(C(=O)C2=CN=C3C(=O)N(c4ccccc4)N(C)C3(C)C2=N)cc1 (configuration not stated)
GI50 (SK-MEL-2): > 100 µM (inactive) | GI50 (PC-3): > 100 µM (inactive) | GI50 (NCI-H460): > 100 µM (inactive) | GI50 (UACC-257): > 100 µM (inactive) | GI50 (TK-10): > 100 µM (inactive) | GI50 (COLO 205): > 100 µM (inactive) | GI50 (MDA-N): > 100 µM (inactive) | GI50 (MDA-MB-231): > 100 µM (inactive) | GI50 (HL-60): > 100 µM (inactive) | GI50 (MDA-MB-435): > 100 µM (inactive) | GI50 (OVCAR-5): > 100 µM (inactive) | GI50 (HCT-116): > 100 µM (inactive) | GI50 (BT-549): > 100 µM (inactive) | GI50 (ACHN): > 100 µM (inactive) | GI50 (NCI-H226): > 100 µM (inactive) | GI50 (EKVX): > 100 µM (inactive) | GI50 (SK-OV-3): > 100 µM (inactive) | GI50 (SN12C): > 100 µM (inactive) | GI50 (NCI-H23): > 100 µM (inactive) | GI50 (A549): > 100 µM (inactive) | GI50 (A498): > 100 µM (inactive) | GI50 (IGROV-1): > 100 µM (inactive) | GI50 (MOLT-4): > 100 µM (inactive) | GI50 (LOX IMVI): > 100 µM (inactive) | GI50 (M14): > 100 µM (inactive) | GI50 (DU-145): > 100 µM (inactive) | GI50 (KM12): > 100 µM (inactive) | GI50 (UO-31): > 100 µM (inactive) | GI50 (SF-295): > 100 µM (inactive) | GI50 (MCF7): > 100 µM (inactive) | GI50 (SNB-75): > 100 µM (inactive) | GI50 (HCC 2998): > 100 µM (inactive) | GI50 (SW-620): > 100 µM (inactive) | GI50 (OVCAR-4): > 100 µM (inactive) | GI50 (Malme-3M): > 100 µM (inactive) | GI50 (SR): > 100 µM (inactive) | GI50 (786-0): > 100 µM (inactive) | GI50 (RPMI-8226): > 100 µM (inactive) | GI50 (CAKI-1): > 100 µM (inactive) | GI50 (HCT-15): > 100 µM | GI50 (K562): > 100 µM (inactive) | GI50 (HOP-92): > 100 µM (inactive) | GI50 (CCRF-CEM): > 100 µM (inactive) | GI50 (SK-MEL-5): > 100 µM (inactive) | GI50 (UACC-62): > 100 µM (inactive) | GI50 (RXF 393): > 100 µM (inactive) | GI50 (NCI/ADR-RES): > 100 µM (inactive) | GI50 (U-251): > 100 µM (inactive) | GI50 (NCI-H522): > 100 µM (inactive) | GI50 (SF-539): > 100 µM (inactive) | GI50 (OVCAR-8): > 100 µM (inactive) | GI50 (OVCAR-3): > 100 µM (inactive)

Source: ChEMBL document CHEMBL1201862, “PubChem BioAssay data set” (2004)
